Measured values taken from PMC5924788 (Frontiers in Chemistry, 2018).
Where two headings read alike, the source gives them in different places. Marks after values point to notes of the source that are not given here.

Experiments:
[1] = mean ± SD; ref Teixeira et al. ([2017a]); cited from earlier work
HepG2 cells = test: Cytotoxicity in HepG2 cells (resazurin reduction); format: cell-based, human; conditions: 48 h; for cellular metabolic activity (resazurin reduction), cytotoxicity: HepG2, 1, 10 and 50 μM
Procedure: Human hepatocellular carcinoma cells (HepG2, ECACC, UK) were also used in this study. Cells were cultured in low-glucose medium (5 mM) composed by Dulbecco's modified Eagle's medium (DMEM, D5030) supplemented with sodium pyruvate (0.11 g/L), sodium bicarbonate (3.7 g/L), HEPES (1.19 g/L), 6 mM glutamine and 10% fetal bovine serum (FBS) and 1% of antibiotic penicillin-streptomycin 100 × solution. HepG2 (2.5 × 10^4 cells/well) cells were seeded in a 96-well plate and proliferate for 24 h before treatment.
(§1) The cytotoxicity profile of the compounds under study was evaluated in differentiated SH-SY5Y cells (8,000 cells/well), according the differentiation protocol previously described, and in HepG2 cells (2.5 × 10^4 cells/well), seeded into 96-well plates. […]. In both assays, the reduction of MTT tetrazolium salt or resazurin to MTT formazan or resorufin, respectively, by cellular dehydrogenases present in viable cells, gives insights on cell metabolic activity.
Regarding the resazurin reduction assay, after the incubation time, the medium was replaced by fresh medium containing resazurin (10 μg/mL) prepared in sterile PBS (1X) and left to react for 1 h. The fluorescent signal was monitored using a 540 nm excitation wavelength and 590 nm emission wavelength in a Cytation 3 reader (BioTek Instruments Inc., USA). The percentage of resazurin reduction relative to that of the control cells was used as the cytotoxicity measure [resazurin reduction (% of control)] as means ± SEM of four independent experiments.

[2] = mean ± SD; ref Teixeira et al. ([2017a]); cited from earlier work; remark: listed apart in the source
BChE [3] = biological target: T1, BChE (Homo sapiens, UniProt P06276); test: biochemical
T1 construct: purchased Sigma-Aldrich Química S. A
Description: (§2) Acetylcholinesterase (AChE) from Electrophorus electricus (electric eel), butyrylcholinesterase (BChE) and acetylthiocholine iodide (ATCI), butyrylthiocholine iodide (BTCI), 5,5′-dithiobis-(2-nitrobenzoate) (DTNB), (4,5-dimethylthiazol-2-yl)-2,5-diphenyl tetrazolium (MTT) bromide and Dulbecco's modified Eagle's medium (DMEM) with 4.5 g/L glucose were obtained from Sigma-Aldrich Química S. A. Reagents used in cell culture, including nonessential amino acids (NEAA), heat inactivated fetal bovine serum (FBS), 0.05% trypsin/1 mM EDTA, antibiotic (10000 U/mL penicillin, 10,000 μg/mL streptomycin) and Hank's balanced salt solution (HBSS) were purchased from Gibco Laboratories. Dimethylsulfoxide (DMSO-d6), absolute ethanol and acetic acid were obtained from Merck. All reagents were of analytical grade or of the highest grade available.
(§3) Briefly, 100 μL of sodium phosphate buffer, 40 μL of DTNB, 20 μL of the test compounds/standard inhibitors and 20 μL of AChE or BChE were incubated for 5 min at 30°C in a 96-well microplate (BRANDplates, pureGradeTM, BRAND GMBH, Wertheim, Germany). After that, 20 μL of ATCI or BTCI was added, respectively. […] A control using 20 μL of sodium phosphate buffer instead of compound solution was also performed. The IC50 values were determined in triplicate from the dose-response inhibition curves and are expressed as mean ± standard deviation (SD).
(§4) ATCI and BTCI were used as substrates for AChE or BChE, respectively, generating thiocholine and acetate or butyrate.

AChE [4] = biological target: T2, AChE (Electrophorus electricus, UniProt O42275); test: AChE inhibition, Ellman's method; format: biochemical, Electrophorus electricus (electric eel)
T2 construct: purchased Sigma-Aldrich Química S. A
Description: as §2, §3, §4

SH-SY5Y cells [5] = test: Cytotoxicity in differentiated SH-SY5Y cells (MTT reduction); format: cell-based, human; conditions: 24 h; for cellular metabolic activity (MTT reduction), cytotoxicity: differentiated SH-SY5Y, 1, 10 and 50 μM
Procedure: SH-SY5Y (ATCC, Manassas, VA, USA), a neuroblastoma cell line, was routinely cultured in 75-cm^2 flasks (Corning Costar, Corning, NY, USA) using DMEM with 4.5 g/L glucose, supplemented with 10% heat-inactivated FBS (v/v), 1% NEAA (v/v), 100 U/mL penicillin, and 100 μg/mL streptomycin. The cells used for all the experiments were taken between the 37th and 45th passages, to avoid phenotypic changes. […] Three days after seeding, the medium of cells was changed, adding cell culture medium with 0.1% of TPA for more 3 days before treatment.
as §1
For the MTT assay, the cell culture medium was removed after the incubation time, followed by the addition of fresh cell culture medium containing 0.5 mg/mL MTT and incubation for 30 min. After this incubation period, the cell culture medium was removed, and the formed formazan crystals dissolved in DMSO. The absorbance was measured at 550 nm in a multi-well plate reader (BioTek Instruments, Vermont, USA). The percentage of MTT reduction relative to that of the control cells was used as the cytotoxicity measure [MTT reduction (% of control)] as means ± SEM of four independent experiments.

[6] = ref Teixeira et al. ([2017a]); cited from earlier work
SH-SY5Y cells [7] = test: Neuroprotection against Aβ1–42 peptide-induced cytotoxicity (resazurin reduction); conditions: for neuroprotective effect against Aβ1–42 peptide-induced cytotoxicity: 10 μM pre-treatment 24 h, then Aβ1–42 25 μM 48 h
Procedure: The antioxidant efficiency of the new HBAc derivatives was evaluated in the presence of Aβ1–42 peptide. […] Aβ1–42 aliquots were then stored at −20°C until use (enriched oligomeric Aβ1–42 preparation).
Undifferentiated SH-SY5Y cells were seeded onto 96-well plates (8000 cells/well) and differentiated as previously described. […] After incubation time, cellular metabolic activity was determined using the resazurin reduction assay as previously described.
Aβ aggregation, the pathological hallmark of AD, is the most targeted biomarker in drug discovery and development for AD.

[8] = Redox properties by differential pulse and cyclic voltammetry; format: physicochemical; conditions: physiological pH 7.4, differential pulse voltammetry, glassy carbon electrode
Procedure: Voltammetric studies were performed using an Autolab PGSTAT12 potentiostat/galvanostat (Metrohm Autolab, Netherland) and a one-compartment glass electrochemical cell.

[9] = DPPH radical scavenging assay; conditions: mean ± SD, triplicate
Procedure: (§5) The IC50 values were determined in triplicate from the dose-response inhibition curves and are expressed as mean ± standard deviation (SD).

[10] = ABTS radical cation scavenging assay; conditions: mean ± SD, triplicate
Procedure: as §5

AChE [11] = biological target: T2, AChE; test: AChE-inhibitor kinetics (Lineweaver-Burk and Dixon plots); format: biochemical, Electrophorus electricus (electric eel)
Procedure: (§6) To evaluate the mechanism of AChE and BChE inhibition of the most promising compounds substrate-dependent kinetic experiments were performed. […] The results are presented as double reciprocal Lineweaver-Burk plots (1/V vs. 1/[S]). The kinetic data, namely Km and Vmax, were acquired employing Michaelis-Menten equation. The Ki values were estimated using Dixon plots, by replotting the slope of each Lineweaver-Burk plot vs. the inhibitor concentration. In the Dixon plots, the Ki value was obtained from the x-axis intercept (–Ki). The enzymatic reactions and measurements were performed using the same AChE and BChE assay conditions as described above (determined in triplicate). Linear regression analysis was performed using GraphPad Prism 5.0 (GraphPad Software, Inc.).
(§7) In order to understand the AChE and BChE inhibitory mechanism of the most promising ChE inhibitors, kinetic experiments were performed. […] Graphical analysis of the reciprocal Lineweaver–Burk plots was used to determine Michaelis-Menten reaction kinetic parameters (Km and Vmax).

BChE [12] = biological target: T1, BChE; test: BChE-inhibitor kinetics (Lineweaver-Burk and Dixon plots); format: biochemical
Procedure: as §6, §7

[13] = mean ± SD, triplicate, 30°C, read-out: IC50 BChE
[14] = Lineweaver-Burk plots, Vmax decreased, Km unchanged

T1 sequence (P06276 29-602, species assumed): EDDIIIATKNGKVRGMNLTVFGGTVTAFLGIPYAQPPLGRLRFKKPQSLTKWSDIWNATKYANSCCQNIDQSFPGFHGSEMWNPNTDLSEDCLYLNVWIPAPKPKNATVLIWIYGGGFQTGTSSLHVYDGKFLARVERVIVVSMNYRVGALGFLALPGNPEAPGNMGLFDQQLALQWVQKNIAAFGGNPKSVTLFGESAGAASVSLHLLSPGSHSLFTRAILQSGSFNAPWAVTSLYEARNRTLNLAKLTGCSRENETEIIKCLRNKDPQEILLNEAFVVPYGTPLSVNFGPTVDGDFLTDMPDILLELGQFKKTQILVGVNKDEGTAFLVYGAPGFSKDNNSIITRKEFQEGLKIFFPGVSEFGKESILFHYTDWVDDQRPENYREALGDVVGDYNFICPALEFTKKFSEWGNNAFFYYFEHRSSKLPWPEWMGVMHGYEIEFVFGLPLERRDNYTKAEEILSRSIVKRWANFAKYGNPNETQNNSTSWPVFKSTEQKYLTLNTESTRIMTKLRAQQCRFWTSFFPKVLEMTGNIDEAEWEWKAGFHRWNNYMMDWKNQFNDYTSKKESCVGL
T2 sequence (O42275 24-633): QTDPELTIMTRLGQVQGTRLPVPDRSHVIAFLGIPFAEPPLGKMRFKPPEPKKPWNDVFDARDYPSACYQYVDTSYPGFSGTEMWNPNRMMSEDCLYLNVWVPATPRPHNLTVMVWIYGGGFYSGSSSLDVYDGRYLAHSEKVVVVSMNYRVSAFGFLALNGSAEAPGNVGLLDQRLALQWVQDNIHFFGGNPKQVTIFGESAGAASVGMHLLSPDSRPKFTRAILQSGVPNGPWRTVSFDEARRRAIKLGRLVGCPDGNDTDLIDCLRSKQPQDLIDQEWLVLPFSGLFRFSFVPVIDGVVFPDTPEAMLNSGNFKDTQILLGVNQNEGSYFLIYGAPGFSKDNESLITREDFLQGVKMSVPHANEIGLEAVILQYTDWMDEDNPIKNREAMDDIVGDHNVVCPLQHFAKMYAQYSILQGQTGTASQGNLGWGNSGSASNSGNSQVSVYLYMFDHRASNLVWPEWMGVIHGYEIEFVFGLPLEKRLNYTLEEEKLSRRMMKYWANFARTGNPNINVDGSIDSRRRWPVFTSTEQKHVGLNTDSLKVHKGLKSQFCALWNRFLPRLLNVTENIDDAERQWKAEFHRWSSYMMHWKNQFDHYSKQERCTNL

Compound | cellular metabolic activity (resazurin reduction), cytotoxicity (HepG2 cells) | SI: BChE selectivity index = IC50(AChE)/IC50(BChE) (BChE [3]) | IC50 (AChE [4]) [µM] | cellular metabolic activity (MTT reduction), cytotoxicity (SH-SY5Y cells [5]) | neuroprotective effect against Aβ1–42 peptide-induced cytotoxicity (SH-SY5Y cells [7]) | Ep (oxidation potential) [8] [mV] | IC50 [9] [µM] | IC50 (BChE [3]) [µM] | IC50 [10] [µM] | further results
O=C(NCCCCCC[P+](c1ccccc1)(c1ccccc1)c1ccccc1)c1cc(O)c(O)c(O)c1 [AntiOxBEN2] | did not alter cellular metabolic activity | 86 | 40.5 ± 7 | did not alter cellular metabolic activity | more evident | – | – | – | – | IC50 [1]: 14 ± 0.3 µM; IC50 [2]: 6.5 ± 0.5 µM; IC50 (BChE [3]; [13]): 0.474 ± 0.017 µM; Ep (oxidation potential) [6]: 115^* mV
O=C(NCCCCCCCCCC[P+](c1ccccc1)(c1ccccc1)c1ccccc1)c1ccc(O)c(O)c1.[Br-] [Compound 17, (10-(3,4-Dihydroxybenzamido)decyl)triphenylphosphonium bromide] | dose-dependent toxicity | – | 7.7 ± 0.4 | dose-dependent toxicity | more evident | 210 | 31 ± 0.6 | 0.195 ± 0.02 | 19.4 ± 1 | –
O=C(NCCCCCCCCCC[P+](c1ccccc1)(c1ccccc1)c1ccccc1)c1cc(O)c(O)c(O)c1.[Br-] [Compound 18, (10-(3,4,5-Trihydroxybenzamido)decyl)triphenylphosphonium bromide] | did not alter cellular metabolic activity | 13 | 7.2 ± 0.5 | did not alter cellular metabolic activity | significantly prevented Aβ1–42 peptide-induced dysfunction/cell death | 114 | 10.2 ± 1.1 | 0.553 ± 0.022 | 7.4 ± 0.5 | cellular metabolic activity (resazurin reduction) (HepG2 cells; HepG2, 10 and 50 μM): slightly increased; Ki (AChE [11]): 6.6 µM; AChE inhibition mechanism (AChE [11]; [14]): non-competitive; cellular metabolic activity (MTT reduction) (SH-SY5Y cells [5]; SH-SY5Y, 1 and 10 μM): slightly increased
O=C(NCCCCCCCC[P+](c1ccccc1)(c1ccccc1)c1ccccc1)c1cc(O)c(O)c(O)c1.[Br-] [Compound 16, (8-(3,4,5-Trihydroxybenzamido)octyl)triphenylphosphonium bromide] | did not alter cellular metabolic activity | 62 | 15.7 ± 0.9 | did not alter cellular metabolic activity | more evident | 121 | 16.8 ± 1.6 | 0.255 ± 0.009 | 6.8 ± 0.6 | –
Aβ1–42 [reference compound] | – | – | – | – | – | – | – | – | – | decrease of cell viability compared to control (SH-SY5Y cells [7]; Aβ1–42 peptide 25 μM, 48 h, resazurin): about 28%
O=C(NCCCCCCCC[P+](c1ccccc1)(c1ccccc1)c1ccccc1)c1ccc(O)c(O)c1.[Br-] [Compound 15, (8-(3,4-Dihydroxybenzamido)octyl)triphenylphosphonium bromide] | dose-dependent toxicity | 106 | 11.2 ± 0.8 | dose-dependent toxicity | – | 216 | 31.2 ± 0.9 | 0.106 ± 0.005 | 23.5 ± 1.3 | –
O=C(NCCCCCC[P+](c1ccccc1)(c1ccccc1)c1ccccc1)c1ccc(O)c(O)c1 [AntiOxBEN1] | dose-dependent toxicity | > 588 | > 50 | dose-dependent toxicity | significantly prevented Aβ1–42 peptide-induced dysfunction/cell death | – | – | – | – | IC50 [1]: 31 ± 0.8 µM; Ki (BChE [12]): 0.0295 µM; BChE inhibition mechanism (BChE [12]; [14]): non-competitive; IC50 [2]: 20.7 ± 0.8 µM; IC50 (BChE [3]; [13]): 0.085 ± 0.005 µM; effect on AChE (AChE [4]; at 50 μM): did not have any effect; Ep (oxidation potential) [6]: 219^* mV
